Measured values published in patent US20230263822A1, “MODULATION OF FACTOR 11 EXPRESSION” (Ionis Pharmaceuticals, Inc., priority 2008, published 2023).

Test: Hematology assays in cynomolgus monkeys (Example 45)
Type: in vivo
Description: Groups, each consisting of two male and three female monkeys, were injected subcutaneously with ISIS 416838, ISIS 416850, ISIS 416858, ISIS 416864, or ISIS 417002 in escalating doses. Antisense oligonucleotide was administered to the monkeys at 5 mg/kg three times per a week for week 1; 5 mg/kg twice per week for weeks 2 and 3; 10 mg/kg three times per week for week 4; 10 mg/kg twice per week for weeks 5 and 6; 25 mg/kg three times per week for week 7; and 25 mg/kg twice per week for weeks 8, 9, 10, 11, and 12. One control group, consisting of two male and three female monkeys, was injected subcutaneously with PBS according to the same dosing regimen. An additional experimental group, consisting of two male and three female monkeys, was injected subcutaneously with ISIS 416850 in a chronic, lower dose regimen. Antisense oligonucleotide was administered to the monkeys at 5 mg/kg three times per week for week 1; 5 mg/kg twice per week for week 2 and 3; 10 mg/kg three times per week for week 4; and 10 mg/kg twice per week for weeks 5 to 12. Body weights were measured weekly. Blood samples were collected 14 days and 5 days before the start of treatment and subsequently once per week for Factor 11 protein activity analysis in plasma, fibrinogen measurement, PT and aPTT measurements, bleeding times, and measurement of various hematologic factors. On day 85, the monkeys were euthanized by exsanguination while under deep anesthesia, and organs harvested for further analysis.
The ISIS oligonucleotide, ISIS 416850, given with the chronic dose regimen is distinguished from the other oligonucleotides with an asterisk (*).

[1] = day 43, chronic dose regimen (*)
[2] = day 43, escalating dose regimen
[3] = day 50, chronic dose regimen (*)
[4] = day 50, escalating dose regimen
[5] = day 57, escalating dose regimen
[6] = day 64, escalating dose regimen
[7] = day 71, escalating dose regimen
[8] = day 78, escalating dose regimen
[9] = day 85, escalating dose regimen
[10] = day −5, chronic dose regimen (*)
[11] = day −5, escalating dose regimen
[12] = day −14, chronic dose regimen (*)
[13] = day −14, escalating dose regimen

Substance: ISIS 416850: MOE gapmer, nucleobases 1275 to 1318 of SEQ ID NO: 1 (Table 8) (antisense TGCACAGTTTCTGGCAGGCC; MOE gapmer, wing and gap sizes not given here)
- monocytes [1]: 1.8%
- neutrophils [1]: 61%
- platelet count [1]: 391000 µL⁻¹
- reticulocytes [1]: 1.0%
- MCH [2]: 23 pg
- MCHC [2]: 29 g/dL
- MCV [2]: 79 fL
- RBC count [2]: 5.2e+06 µL⁻¹
- WBC count [2]: 9000 µL⁻¹
- hematocrit [2]: 40%
- hemoglobin [2]: 11.8 g/dL
- basophils (day 50): 0.3%
- eosinophils (day 50): 1.2%
- lymphocytes (day 50): 49%
- monocytes (day 50): 3.7%
- neutrophils (day 50): 45%
- platelet count (day 50): 487000 µL⁻¹
- reticulocytes (day 50): 2.7%
- MCH [3]: 23 pg
- MCHC [3]: 29 g/dL
- MCV [3]: 80 fL
- RBC count [3]: 5.3e+06 µL⁻¹
- WBC count [3]: 15000 µL⁻¹
- basophils [3]: 0.2%
- eosinophils [3]: 0.3%
- hematocrit [3]: 42%
- hemoglobin [3]: 11.9 g/dL
- lymphocytes [3]: 35%
- monocytes [3]: 1.8%
- neutrophils [3]: 62%
- platelet count [3]: 351000 µL⁻¹
- reticulocytes [3]: 1.2%
- MCH [4]: 23 pg
- MCHC [4]: 28 g/dL
- MCV [4]: 83 fL
- RBC count [4]: 5.2e+06 µL⁻¹
- WBC count [4]: 11000 µL⁻¹
- hematocrit [4]: 42%
- hemoglobin [4]: 11.8 g/dL
- basophils (day 57): 0.4%
- eosinophils (day 57): 1.0%
- lymphocytes (day 57): 45%
- monocytes (day 57): n.d.3.2%
- neutrophils (day 57): 49%
- platelet count (day 57): 528000 µL⁻¹
- reticulocytes (day 57): 2.0%
- MCH [5]: 23 pg
- MCHC [5]: 29 g/dL
- MCV [5]: 80 fL
- RBC count [5]: 5.2e+06 µL⁻¹
- WBC count [5]: 11000 µL⁻¹
- hematocrit [5]: 42%
- hemoglobin [5]: 12.1 g/dL
- basophils (day 64): 0.4%
- eosinophils (day 64): 1.3%
- lymphocytes (day 64): 53%
- monocytes (day 64): n.d.3.5%
- neutrophils (day 64): 41%
- platelet count (day 64): 496000 µL⁻¹
- reticulocytes (day 64): 1.7%
- MCHC [6]: 29 g/dL
- MCV [6]: 79 fL
- RBC count [6]: 5.4e+06 µL⁻¹
- WBC count [6]: 11000 µL⁻¹
- hematocrit [6]: 43%
- hemoglobin [6]: 12.3 g/dL
- basophils (day 71): 0.3%
- eosinophils (day 71): 1.8%
- lymphocytes (day 71): 61%
- monocytes (day 71): n.d.4.7%
- neutrophils (day 71): 27%
- platelet count (day 71): 465000 µL⁻¹
- reticulocytes (day 71): 1.8%
- MCHC [7]: 28 g/dL
- MCV [7]: 80 fL
- RBC count [7]: 5.4e+06 µL⁻¹
- WBC count [7]: 15000 µL⁻¹
- hematocrit [7]: 43%
- hemoglobin [7]: 12.3 g/dL
- basophils (day 78): 0.3%
- eosinophils (day 78): 1.0%
- lymphocytes (day 78): 51%
- monocytes (day 78): n.d.4.5%
- neutrophils (day 78): 42%
- platelet count (day 78): 449000 µL⁻¹
- reticulocytes (day 78): 1.8%
- MCHC [8]: 29 g/dL
- MCV [8]: 79 fL
- RBC count [8]: 5.3e+06 µL⁻¹
- WBC count [8]: 12000 µL⁻¹
- hematocrit [8]: 41%
- hemoglobin [8]: 12.2 g/dL
- basophils (day 85): 0.3%
- eosinophils (day 85): 1.2%
- lymphocytes (day 85): 34%
- monocytes (day 85): n.d.3.5%
- neutrophils (day 85): 60%
- platelet count (day 85): 458000 µL⁻¹
- reticulocytes (day 85): 2.3%
- MCHC [9]: 30 g/dL
- MCV [9]: 77 fL
- RBC count [9]: 5.5e+06 µL⁻¹
- WBC count [9]: 15000 µL⁻¹
- hematocrit [9]: 42%
- hemoglobin [9]: 12.7 g/dL
- basophils (day −5): 0.2%
- eosinophils (day −5): 1.6%
- lymphocytes (day −5): 43%
- monocytes (day −5): 2.8%
- neutrophils (day −5): 52%
- platelet count (day −5): 573000 µL⁻¹
- reticulocytes (day −5): 1.2%
- MCH [10]: 23 pg
- MCHC [10]: 30 g/dL
- MCV [10]: 78 fL
- RBC count [10]: 5.5e+06 µL⁻¹
- WBC count [10]: 15000 µL⁻¹
- basophils [10]: 0.3%
- eosinophils [10]: 0.7%
- hematocrit [10]: 43%
- hemoglobin [10]: 12.8 g/dL
- lymphocytes [10]: 43%
- monocytes [10]: 2.4%
- neutrophils [10]: 53%
- platelet count [10]: 434000 µL⁻¹
- reticulocytes [10]: 0.8%
- MCH [11]: 23 pg
- MCHC [11]: 30 g/dL
- MCV [11]: 77 fL
- RBC count [11]: 5.5e+06 µL⁻¹
- WBC count [11]: 13000 µL⁻¹
- hematocrit [11]: 43%
- hemoglobin [11]: 12.7 g/dL
- basophils (day −14): 0.2%
- eosinophils (day −14): 1.0%
- lymphocytes (day −14): 47%
- monocytes (day −14): 2.3%
- neutrophils (day −14): 49%
- platelet count (day −14): 528000 µL⁻¹
- reticulocytes (day −14): 1.7%
- MCH [12]: 24 pg
- MCHC [12]: 29 g/dL
- MCV [12]: 81 fL
- RBC count [12]: 5.5e+06 µL⁻¹
- WBC count [12]: 15000 µL⁻¹
- basophils [12]: 0.2%
- eosinophils [12]: 0.5%
- hematocrit [12]: 44%
- hemoglobin [12]: 12.8 g/dL
- lymphocytes [12]: 47%
- monocytes [12]: 2.9%
- neutrophils [12]: 48%
- platelet count [12]: 387000 µL⁻¹
- reticulocytes [12]: 1.1%
- MCH [13]: 23 pg
- MCHC [13]: 30 g/dL
- MCV [13]: 78 fL
- RBC count [13]: 5.3e+06 µL⁻¹
- WBC count [13]: 13000 µL⁻¹
- hematocrit [13]: 41%
- hemoglobin [13]: 12.4 g/dL
